Experimental data from ChEMBL document CHEMBL4311943, “3-[(1S,2S,3R)-2,3-Difluoro-1-hydroxy-7-methylsulfonylindan-4-yl]oxy-5-fluorobenzonitrile (PT2977), a Hypoxia-Inducible Factor 2α (HIF-2α) Inhibitor for the Treatment of Clear Cell Renal Cell Carcinoma” (J Med Chem, 2019).
Active and inactive are the calls of the source. The calls are words filed in the database; no cut-off is given here.

Tests used:
[1] = biological target: Vasopressin V1a receptor (Homo sapiens) (UniProt P37288); test: Activity at human V1A receptor at 10 uM
Chain of Vasopressin V1a receptor (Homo sapiens) (P37288 whole entry, looked up): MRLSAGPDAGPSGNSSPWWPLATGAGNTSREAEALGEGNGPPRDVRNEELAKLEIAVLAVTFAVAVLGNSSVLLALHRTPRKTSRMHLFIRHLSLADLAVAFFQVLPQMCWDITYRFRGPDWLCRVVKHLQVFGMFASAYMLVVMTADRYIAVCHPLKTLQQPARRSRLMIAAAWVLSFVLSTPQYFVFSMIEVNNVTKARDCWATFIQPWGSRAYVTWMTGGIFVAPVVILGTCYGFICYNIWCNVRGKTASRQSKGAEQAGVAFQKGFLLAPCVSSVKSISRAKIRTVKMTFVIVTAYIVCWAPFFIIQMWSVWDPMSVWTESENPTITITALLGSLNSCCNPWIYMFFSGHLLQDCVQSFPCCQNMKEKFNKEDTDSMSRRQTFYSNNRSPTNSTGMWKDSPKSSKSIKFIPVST

[2] = AUClast in patient with advanced solid tumor at 240 mg, po administered once daily measured on day 15; type: ADME, organism-based; design: dose 240 mg, time 0 - last, route oral; conditions: human, in vivo
[3] = biological target: Urotensin-2 receptor (Homo sapiens) (UniProt Q9UKP6); test: Activity at human GPR14 receptor at 10 uM
Chain of Urotensin-2 receptor (Homo sapiens) (Q9UKP6 whole entry): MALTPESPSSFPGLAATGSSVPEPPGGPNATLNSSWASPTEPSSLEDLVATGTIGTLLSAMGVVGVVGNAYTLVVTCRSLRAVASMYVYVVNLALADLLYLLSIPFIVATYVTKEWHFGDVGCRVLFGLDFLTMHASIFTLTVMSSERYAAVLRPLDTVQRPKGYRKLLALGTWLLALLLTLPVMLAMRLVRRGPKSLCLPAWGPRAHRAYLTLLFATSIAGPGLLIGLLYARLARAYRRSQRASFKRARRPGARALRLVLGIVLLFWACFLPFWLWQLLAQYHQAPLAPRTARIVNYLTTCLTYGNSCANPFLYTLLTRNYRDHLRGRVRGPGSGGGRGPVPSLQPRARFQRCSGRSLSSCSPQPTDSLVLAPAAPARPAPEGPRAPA

[4] = biological target: P2Y purinoceptor 1 (Homo sapiens) (UniProt P47900); test: Activity at human P2Y1 receptor at 10 uM
Chain of P2Y purinoceptor 1 (Homo sapiens) (P47900 whole entry): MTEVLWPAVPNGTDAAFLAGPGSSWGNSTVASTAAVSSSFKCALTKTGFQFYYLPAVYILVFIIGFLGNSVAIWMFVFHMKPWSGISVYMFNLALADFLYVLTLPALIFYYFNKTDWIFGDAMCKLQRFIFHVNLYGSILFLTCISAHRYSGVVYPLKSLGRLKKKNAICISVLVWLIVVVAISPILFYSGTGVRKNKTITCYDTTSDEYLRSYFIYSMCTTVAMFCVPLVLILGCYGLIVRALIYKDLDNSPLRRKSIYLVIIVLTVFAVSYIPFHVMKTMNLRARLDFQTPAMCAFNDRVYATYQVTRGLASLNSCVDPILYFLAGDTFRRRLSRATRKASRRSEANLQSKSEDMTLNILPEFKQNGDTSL

[5] = biological target: Thromboxane A2 receptor (Homo sapiens) (UniProt P21731); test: Activity at human Prostanoid TP receptor at 10 uM
Chain of Thromboxane A2 receptor (Homo sapiens) (P21731 whole entry): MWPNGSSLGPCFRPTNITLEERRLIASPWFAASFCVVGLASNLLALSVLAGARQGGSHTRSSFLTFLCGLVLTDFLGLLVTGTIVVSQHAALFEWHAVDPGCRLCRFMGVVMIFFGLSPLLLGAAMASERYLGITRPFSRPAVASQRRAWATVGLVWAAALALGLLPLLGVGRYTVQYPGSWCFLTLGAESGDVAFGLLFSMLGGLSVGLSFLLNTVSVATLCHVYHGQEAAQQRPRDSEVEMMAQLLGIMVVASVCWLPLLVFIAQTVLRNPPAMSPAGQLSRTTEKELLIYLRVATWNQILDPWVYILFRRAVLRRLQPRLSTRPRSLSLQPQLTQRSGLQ

[6] = biological target: Tyrosine-protein kinase ABL1 (Homo sapiens) (UniProt P00519); test: Activity at human Abl at 10 uM
Chain of Tyrosine-protein kinase ABL1 (Homo sapiens) (P00519 whole entry): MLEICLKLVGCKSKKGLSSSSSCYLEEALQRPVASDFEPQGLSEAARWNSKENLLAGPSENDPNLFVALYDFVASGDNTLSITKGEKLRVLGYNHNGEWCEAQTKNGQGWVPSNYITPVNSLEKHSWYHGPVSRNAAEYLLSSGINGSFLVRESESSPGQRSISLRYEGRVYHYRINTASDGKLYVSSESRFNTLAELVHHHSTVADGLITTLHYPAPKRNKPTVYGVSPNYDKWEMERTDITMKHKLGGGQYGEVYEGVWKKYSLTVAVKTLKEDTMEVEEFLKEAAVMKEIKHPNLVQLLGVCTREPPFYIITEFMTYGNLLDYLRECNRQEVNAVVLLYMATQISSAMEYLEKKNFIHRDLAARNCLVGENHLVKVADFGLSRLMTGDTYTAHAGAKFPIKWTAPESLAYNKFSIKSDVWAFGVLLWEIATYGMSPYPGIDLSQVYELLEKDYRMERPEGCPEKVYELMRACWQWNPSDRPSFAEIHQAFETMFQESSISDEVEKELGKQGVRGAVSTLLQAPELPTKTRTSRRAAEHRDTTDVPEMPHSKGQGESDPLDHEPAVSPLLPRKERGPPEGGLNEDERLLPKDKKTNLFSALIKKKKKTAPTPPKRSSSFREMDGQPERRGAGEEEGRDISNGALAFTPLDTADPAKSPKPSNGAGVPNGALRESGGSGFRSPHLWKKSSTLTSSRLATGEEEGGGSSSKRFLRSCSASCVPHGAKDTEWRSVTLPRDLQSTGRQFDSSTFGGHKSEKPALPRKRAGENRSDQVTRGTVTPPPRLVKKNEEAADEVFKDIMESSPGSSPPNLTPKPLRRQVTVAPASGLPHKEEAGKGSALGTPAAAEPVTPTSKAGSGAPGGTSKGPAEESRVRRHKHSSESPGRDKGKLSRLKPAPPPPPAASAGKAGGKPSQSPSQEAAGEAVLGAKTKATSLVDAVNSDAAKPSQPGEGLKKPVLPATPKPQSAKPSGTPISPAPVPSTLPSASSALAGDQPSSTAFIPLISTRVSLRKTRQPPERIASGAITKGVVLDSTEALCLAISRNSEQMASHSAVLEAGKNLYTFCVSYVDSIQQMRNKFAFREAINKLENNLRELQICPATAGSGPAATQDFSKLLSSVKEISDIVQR

[7] = biological target: T1, UDP-glucuronosyltransferase 2B17 (Homo sapiens, UniProt O75795); test: Substrate activity at UGT2B17 in human intestinal microsomes assessed as enzyme-mediated glucuronidation by measuring Vmax per mg protein at 2 to 1000 uM preincubated for 5 mins followed by UDPGA addition and measured after 60 mins by LC-MS/MS analysis; type: ADME, Intestine; conditions: 1 h
T1 sequence (O75795 whole entry): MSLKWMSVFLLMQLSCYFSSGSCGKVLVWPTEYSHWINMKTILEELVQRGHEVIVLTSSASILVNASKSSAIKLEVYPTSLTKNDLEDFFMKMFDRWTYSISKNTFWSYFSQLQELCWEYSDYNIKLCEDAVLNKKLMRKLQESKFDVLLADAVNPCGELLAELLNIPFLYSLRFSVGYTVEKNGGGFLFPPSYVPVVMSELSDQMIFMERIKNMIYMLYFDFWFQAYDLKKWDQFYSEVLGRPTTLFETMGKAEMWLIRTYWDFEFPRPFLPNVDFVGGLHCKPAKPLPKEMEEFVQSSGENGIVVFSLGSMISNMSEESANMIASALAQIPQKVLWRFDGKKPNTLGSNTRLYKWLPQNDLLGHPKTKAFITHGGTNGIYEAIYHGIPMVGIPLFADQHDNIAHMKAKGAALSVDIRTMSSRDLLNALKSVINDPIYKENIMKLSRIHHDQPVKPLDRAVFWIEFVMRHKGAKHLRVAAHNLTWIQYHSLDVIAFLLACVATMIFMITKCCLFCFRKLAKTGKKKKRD

[8] = biological target: Histamine H3 receptor (Homo sapiens) (UniProt Q9Y5N1); test: Activity at human H3 receptor at 10 uM
[9] = biological target: Voltage-gated inwardly rectifying potassium channel KCNH2 (Homo sapiens, UniProt Q12809); test: Activity at human ERG at 10 uM
[10] = biological target: RAC-beta serine/threonine-protein kinase (Homo sapiens) (UniProt P31751); test: Activity at human PKBbeta at 10 uM
Chain of RAC-beta serine/threonine-protein kinase (Homo sapiens) (P31751 whole entry): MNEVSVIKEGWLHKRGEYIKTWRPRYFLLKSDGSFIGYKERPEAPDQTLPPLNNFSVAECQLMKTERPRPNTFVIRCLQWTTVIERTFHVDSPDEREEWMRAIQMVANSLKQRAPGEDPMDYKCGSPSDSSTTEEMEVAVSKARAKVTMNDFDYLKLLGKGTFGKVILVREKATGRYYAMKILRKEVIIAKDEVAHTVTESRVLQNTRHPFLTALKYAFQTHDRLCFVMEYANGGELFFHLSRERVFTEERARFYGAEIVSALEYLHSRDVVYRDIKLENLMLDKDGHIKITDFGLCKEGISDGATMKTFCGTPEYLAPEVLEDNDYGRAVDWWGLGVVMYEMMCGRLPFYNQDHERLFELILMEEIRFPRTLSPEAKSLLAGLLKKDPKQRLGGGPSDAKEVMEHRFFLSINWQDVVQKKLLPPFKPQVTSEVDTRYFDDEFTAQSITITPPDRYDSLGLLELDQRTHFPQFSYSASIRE

[11] = biological target: Prokineticin receptor 1 (Homo sapiens) (UniProt Q8TCW9); test: Activity at human PK1 receptor at 10 uM
Chain of Prokineticin receptor 1 (Homo sapiens) (Q8TCW9 whole entry): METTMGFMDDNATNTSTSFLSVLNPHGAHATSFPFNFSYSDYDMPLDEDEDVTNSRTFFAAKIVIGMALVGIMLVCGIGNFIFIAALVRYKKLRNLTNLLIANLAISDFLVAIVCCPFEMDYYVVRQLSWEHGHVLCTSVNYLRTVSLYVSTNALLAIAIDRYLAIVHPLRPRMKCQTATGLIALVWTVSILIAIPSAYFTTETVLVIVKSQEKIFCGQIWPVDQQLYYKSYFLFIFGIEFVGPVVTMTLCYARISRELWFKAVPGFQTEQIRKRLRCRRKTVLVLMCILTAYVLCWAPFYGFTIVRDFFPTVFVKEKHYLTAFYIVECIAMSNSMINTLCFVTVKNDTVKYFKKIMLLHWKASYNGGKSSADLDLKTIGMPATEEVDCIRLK

[12] = Volume of distribution at steady state in Beagle dog at 1 mg/kg, iv by UPLC-MS analysis; type: ADME, organism-based, Canis lupus familiaris; conditions: in vivo, read-out: Vdss
[13] = Cmax in patient with advanced solid tumor at 40 mg, po administered once daily measured on day 15; type: ADME, organism-based; design: dose 40 mg, route oral; conditions: human, in vivo
[14] = Half life in Beagle dog at 1 mg/kg, iv by UPLC-MS analysis; type: ADME, organism-based, Canis lupus familiaris; conditions: in vivo
[15] = biological target: A-type voltage-gated potassium channel KCND3 (Homo sapiens, UniProt Q9UK17); test: Activity at human Kv4.3 at 10 uM
Chain of A-type voltage-gated potassium channel KCND3 (Q9UK17 whole entry): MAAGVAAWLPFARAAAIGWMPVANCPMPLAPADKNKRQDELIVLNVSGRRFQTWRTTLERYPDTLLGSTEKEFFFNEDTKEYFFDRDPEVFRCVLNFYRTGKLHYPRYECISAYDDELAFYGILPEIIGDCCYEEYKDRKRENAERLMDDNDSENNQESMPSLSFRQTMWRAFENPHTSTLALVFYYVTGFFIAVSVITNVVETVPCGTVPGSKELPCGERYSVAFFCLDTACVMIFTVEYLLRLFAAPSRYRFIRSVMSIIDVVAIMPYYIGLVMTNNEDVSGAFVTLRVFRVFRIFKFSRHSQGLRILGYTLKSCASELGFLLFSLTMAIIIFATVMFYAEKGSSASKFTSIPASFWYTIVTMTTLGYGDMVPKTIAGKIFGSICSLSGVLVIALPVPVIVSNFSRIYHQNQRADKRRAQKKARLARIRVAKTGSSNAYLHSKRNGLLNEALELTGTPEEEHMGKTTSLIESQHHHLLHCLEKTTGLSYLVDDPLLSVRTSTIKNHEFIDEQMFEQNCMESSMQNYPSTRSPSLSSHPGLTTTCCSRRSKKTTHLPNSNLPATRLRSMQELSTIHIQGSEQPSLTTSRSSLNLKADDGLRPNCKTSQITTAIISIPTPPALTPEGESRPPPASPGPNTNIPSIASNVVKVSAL

UGT2B17 = biological target: T2, UGT2B17 (Homo sapiens, UniProt O75795); test: Substrate activity at recombinant human UGT2B17 expressed in baculovirus infected insect cell membranes assessed as enzyme-mediated glucuronidation by measuring Km at 50 uM preincubated for 5 mins followed by UDPGA addition and measured after 60 mins by LC-MS/MS analysis; type: ADME
T2 sequence (O75795 whole entry): T1 sequence (O75795 whole entry)

[16] = biological target: Histamine H2 receptor (Homo sapiens) (UniProt P25021); test: Activity at human H2 receptor at 10 uM
[17] = Drug level in plasma of SCID Beige mouse xenografted with human 786-O cells at 3 mg/kg, po administered twice daily via gavage for 3 days measured 12 hrs post-last dose; type: ADME, organism-based
[18] = biological target: Protein kinase C iota type (Homo sapiens) (UniProt P41743); test: Activity at human PKCiota at 10 uM
Chain of Protein kinase C iota type (Homo sapiens) (P41743 whole entry): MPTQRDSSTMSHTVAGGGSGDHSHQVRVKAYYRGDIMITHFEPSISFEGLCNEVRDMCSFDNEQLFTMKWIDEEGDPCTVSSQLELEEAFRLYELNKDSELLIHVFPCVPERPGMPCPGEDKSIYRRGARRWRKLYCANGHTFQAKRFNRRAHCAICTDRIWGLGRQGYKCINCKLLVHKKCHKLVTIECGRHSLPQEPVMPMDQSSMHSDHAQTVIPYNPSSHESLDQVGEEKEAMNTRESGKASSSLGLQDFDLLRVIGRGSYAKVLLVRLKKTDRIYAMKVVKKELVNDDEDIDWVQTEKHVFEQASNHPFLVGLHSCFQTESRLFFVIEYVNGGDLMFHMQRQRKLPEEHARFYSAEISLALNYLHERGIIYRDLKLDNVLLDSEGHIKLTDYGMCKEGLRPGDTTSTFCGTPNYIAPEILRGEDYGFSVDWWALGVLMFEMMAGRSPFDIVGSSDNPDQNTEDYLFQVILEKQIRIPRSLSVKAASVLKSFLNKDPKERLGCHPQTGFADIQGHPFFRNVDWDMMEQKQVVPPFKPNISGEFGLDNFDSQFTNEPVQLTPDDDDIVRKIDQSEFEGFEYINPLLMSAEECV

With `CS(=O)(=O)c1ccc(Oc2cc(F)cc(C#N)c2)c2c1[C@H](O)[C@H](F)[C@@H]2F` [BELZUTIFAN] the Activity [1] was “inactive”, the AUC(0-t) [2] was 28000 ng·h/mL and the Activity [3] was “inactive”. The Activity [4] was “inactive”, the Activity [5] was “inactive” and the Activity [6] was “inactive”. The Vmax [7] was 0.5 pmol/min, the Activity [8] was “inactive” and the Activity [9] was “Not Active”. For the same compound, the Activity [10] was “inactive”, the Activity [11] was “inactive” and the Vd [12] was 1.3 L/kg. The Cmax [13] was 500 ng/mL, the half-life [14] was 14 h and the Activity [15] was “Not Active”. The Km at 1 h, 50 µM (UGT2B17) was 10 µM, the Activity [16] was “inactive” and the concentration at 12 h [17] was 59 ng/mL. For the same compound, the Activity [18] was “inactive”.
